From patent US10221163B2 (priority 2015, dated 2019)
Like-named read-outs stand apart in the source and are kept apart here.

Assays:
[1] = test system: Pseudomonas aeruginosa efflux− (MB9799), IMP-1; format: cell-based; conditions: C, D serine β-lactamase inhibitor closely related to relebactam; for P. aeruginosa expressing IMP-1, efflux − (MB9799) MITC95: concentration restoring susceptibility to imipenem at 2 μg/mL in the presence of a class A; for Concentration of metallo-β-lactamase inhibitor which restores susceptibility of efflux − (MB9799) strain to imipenem: imipenem at 2 μg/mL, in the presence of a class A
How it was run: (§1)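 PAO1 pair, broth microdilution; fixed β-lactam (imipenem/ceftazidime) at ~CLSI breakpoint + fixed class A/C BLI for AmpC; serial MBLi titration; endpoint = MBLi conc. restoring susceptibility; MB9798:MB9799 ratio = efflux liability.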

[2] = biological target: VIM-1 (Pseudomonas aeruginosa (strain ATCC 15692 / DSM 22644 / CIP 104116 / JCM 14847 / LMG 12228 / 1C / PRS 101 / PAO1), UniProt A0A0F7KYQ8); assay: biochemical; conditions: CCF2-FA substrate, 30 pM enzyme, 2 hours at 25° C.
How it was run: (§2)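 Inhibitor was mixed with the metallo-β-lactamase and CCF2-FA. After 2 hours at 25° C, fluorescence of the coumarin–fluorescein cephalosporin substrate was read. IC50 was calculated with a 4-parameter fit.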

[3] = biological target: NDM-1 (Klebsiella pneumoniae, UniProt C7C422); assay: biochemical; format: biochemical; conditions: fluorescence assay, CCF2-FA substrate, 1 pM enzyme, 2 hours at 25° C.; read-out: NDM-1 IC50
How it was run: as §2

[4] = biological target: IMP-1 (Serratia marcescens, UniProt P52699); assay: biochemical; format: biochemical; conditions: fluorescence assay, CCF2-FA substrate, 2 pM enzyme, 2 hours at 25° C.; read-out: IMP-1 IC50
How it was run: as §2

[5] = test system: Klebsiella pneumoniae expressing VIM-1 (IHMA599644); format: cell-based; conditions: for Klebsiella pneumoniae MITC95: VIM-1 strain IHMA599644, with imipenem 1 μg/ml, 95% inhibition of growth; for Klebsiella pneumoniae expressing VIM-1 (IHMA599644) MITC95: with imipenem 1 μg/ml, 95% inhibition of bacterial growth
How it was run: (§3)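 Clinical strains grown overnight on blood agar at 35°C, colonies suspended in saline, diluted 1:100 into 1.1×CAMHB. Test compound titrated with imipenem at 1 μg/ml; incubated 22–24 h at 35°C, growth read by absorbance.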

[6] = test system: Escherichia coli expressing NDM-1 (CLB30005, CLB30016); format: cell-based; conditions: with imipenem 1 μg/ml; for Escherichia coli MITC95: NDM-1 strain, 95% inhibition of growth; for Escherichia coli expressing NDM-1 (CLB30016) MITC95: 95% inhibition of bacterial growth
How it was run: as §3

[7] = test system: Serratia marcescens expressing IMP-1 (CL5741); format: cell-based; conditions: for Serratia marcescens MITC95: IMP-1 strain CL5741, with imipenem 1 μg/ml, 95% inhibition of growth; for Serratia marcescens expressing IMP-1 (CL5741) MITC95: with imipenem 1 μg/ml, 95% inhibition of bacterial growth
How it was run: as §3

[8] = test system: Pseudomonas aeruginosa MB9798 vs MB9799
How it was run: as §1

[9] = test system: Pseudomonas aeruginosa efflux+ (MB9798), IMP-1; format: cell-based; parameters: Concentration of metallo-β-lactamase inhibitor which restores susceptibility of efflux + (MB9798) strain to imipenem: unit not given here; conditions: C, D serine β-lactamase inhibitor closely related to relebactam; for P. aeruginosa expressing IMP-1, efflux + (MB9798) MITC95: concentration restoring susceptibility to imipenem at 2 μg/mL in the presence of a class A; for Concentration of metallo-β-lactamase inhibitor which restores susceptibility of efflux + (MB9798) strain to imipenem: imipenem at 2 μg/mL, in the presence of a class A
How it was run: as §1

[10] = ratio MITC95 PA_9798/MITC95 PA_9799
[11] = fluorescence assay, read-out: VIM-1 IC50
[12] = fold difference between efflux+ (MB9798) and efflux− (MB9799) strains, imipenem at 2 μg/mL

IMP-1, sequence (P52699 whole entry, looked up, species assumed): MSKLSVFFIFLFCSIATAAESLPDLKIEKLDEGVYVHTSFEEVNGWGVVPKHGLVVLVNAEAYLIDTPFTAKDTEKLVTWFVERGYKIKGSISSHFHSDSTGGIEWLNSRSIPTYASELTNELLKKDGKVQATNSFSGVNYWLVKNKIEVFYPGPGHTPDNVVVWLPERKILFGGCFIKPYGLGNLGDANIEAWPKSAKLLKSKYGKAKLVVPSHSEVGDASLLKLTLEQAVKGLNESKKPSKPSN
NDM-1, sequence (C7C422 whole entry, looked up, species assumed): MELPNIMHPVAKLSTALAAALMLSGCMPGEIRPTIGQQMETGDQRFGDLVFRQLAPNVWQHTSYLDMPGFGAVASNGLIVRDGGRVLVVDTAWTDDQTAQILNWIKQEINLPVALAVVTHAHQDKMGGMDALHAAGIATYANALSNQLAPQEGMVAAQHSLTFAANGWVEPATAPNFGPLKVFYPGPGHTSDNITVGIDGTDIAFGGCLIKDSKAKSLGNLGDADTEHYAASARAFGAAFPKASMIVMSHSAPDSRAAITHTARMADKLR

| Compound | P. aeruginosa expressing IMP-1, efflux − (MB9799) MITC95 [1] [µM] | IC50 ([2]; VIM-1 IC50, fluorescence assay) [nM] | IC50 [3] [nM] | IC50 [4] [nM] | Klebsiella pneumoniae MITC95 [5] [µM] | Escherichia coli MITC95 [6] [µM] | Serratia marcescens MITC95 [7] [µM] | Efflux ratio [8, 10] | P. aeruginosa expressing IMP-1, efflux + (MB9798) MITC95 [9] [µM] | Concentration of metallo-β-lactamase inhibitor which restores susceptibility of efflux − (MB9799) strain to imipenem [1] | IC50 [2, 11] [nM] | Efflux ratio [8, 12] | Concentration of metallo-β-lactamase inhibitor which restores susceptibility of efflux + (MB9798) strain to imipenem [9] | Klebsiella pneumoniae expressing VIM-1 (IHMA599644) MITC95 [5] [µM] | Escherichia coli expressing NDM-1 (CLB30016) MITC95 [6] [µM] | Serratia marcescens expressing IMP-1 (CL5741) MITC95 [7] [µM] |
| --- | --- | --- | --- | --- | --- | --- | --- | --- | --- | --- | --- | --- | --- | --- | --- | --- |
| NCCNS(=O)(=O)c1ccc(-c2cccc3[nH]c([C@H](N)CO)nc23)c(-c2nn[nH]n2)c1S(N)(=O)=O [Example 330, (S)-4-(2-(1-amino-2-hydroxyethyl)-1H-benzo[d]imidazol-4-yl)-N1-(2-aminoethyl)-3-(2H-tetrazol-5-yl)benzene-1,2-disulfonamide] | 1.563 | 0.308 | 0.294 | 2.76 | 3.125 | 3.125 | 1.563 | 1.00 | 1.563 |  |  |  |  |  |  |  |
| NCc1csc(Nc2cccc(-c3ccc(S(=O)(=O)N[C@@H]4CCNC4)c(S(N)(=O)=O)c3-c3nn[nH]n3)c2)n1 [Example 290, (R)-3′-((4-(aminomethyl)thiazol-2-yl)amino)-N4-(pyrrolidin-3-yl)-2-(2H-tetrazol-5-yl)-[1,1′-biphenyl]-3,4-disulfonamide] | 0.3906 | 0.104 | 0.0873 | 0.448 | 0.7813 | 0.1953 | 0.7813 | 2.00 | 0.7813 |  |  |  |  |  |  |  |
| NC[C@H](O)CNS(=O)(=O)c1ccc(-c2ccc3nccn3c2)c(-c2nn[nH]n2)c1S(N)(=O)=O [Example 418] |  |  | 0.152 | 0.834 | 1.563 | 0.3906 | 0.7813 |  |  | 0.7813 | 0.113 | 2.00 | 1.563 |  |  |  |
| Nc1nc2c(-c3ccc(S(=O)(=O)NC4(CO)CCNC4)c(S(N)(=O)=O)c3-c3nnn[nH]3)cccc2s1 (stereo not drawn) [Example 84, 4-(2-amino-1,3-benzothiazol-4-yl)-N1-[3-(hydroxymethyl)pyrrolidin-3-yl]-3-(1H-tetrazol-5-yl)benzene-1,2-disulfonamide] | 1.563 |  | 0.0619 | 0.403 |  |  |  | 1.00 | 1.563 |  | 0.27 |  |  | 3.125 | 1.563 | 3.125 |
| Nc1nc2c(-c3ccc(S(=O)(=O)N[C@]4(CO)CCNC4)c(S(N)(=O)=O)c3-c3nnn[nH]3)cccc2[nH]1 [Example 177, (R)-4-(2-amino-1H-benzo[d]imidazol-4-yl)-N1-(3-(hydroxymethyl)pyrrolidin-3-yl)-3-(1H-tetrazol-5-yl)benzene-1,2-disulfonamide] | 1.563 |  | 0.0669 | 0.862 |  |  |  | 0.50 | 0.7813 |  | 0.246 |  |  | 1.563 | 0.7813 | 1.563 |
| Nc1ncc(-c2cccc(-c3ccc(S(=O)(=O)N[C@@H]4CCNC4)c(S(N)(=O)=O)c3-c3nnn[nH]3)n2)[nH]1 [Example 439, (R)-4-(6-(2-Amino-1H-imidazol-5-yl)pyridin-2-yl)-N^1-(pyrrolidin-3-yl)-3-(1H-tetrazol-5-yl)benzene-1,2-disulfonamide] |  |  | 0.254 | 6.72 | 1.563 | 3.125 | 1.563 |  |  | 1.563 | 0.629 | 4.00 | 6.25 |  |  |  |
| Nc1ccc(-c2ccc(S(=O)(=O)NC[C@@H]3CNCCN3)c(S(N)(=O)=O)c2-c2nn[nH]n2)cn1 [Example 312, (S)-4-(6-aminopyridin-3-yl)-N1-(piperazin-2-ylmethyl)-3-(2H-tetrazol-5-yl)benzene-1,2-disulfonamide] | 1.563 | 0.28 | 0.216 | 0.586 | 3.125 | 0.3906 | 0.7813 | 1.00 | 1.563 |  |  |  |  |  |  |  |
| NC[C@H](O)CNS(=O)(=O)c1ccc(-c2cccc3[nH]c(N)nc23)c(-c2nn[nH]n2)c1S(N)(=O)=O [Example 304, (S)-4-(2-amino-1H-benzo[d]imidazol-4-yl)-N1-(3-amino-2-hydroxypropyl)-3-(2H-tetrazol-5-yl)-benzene-1,2-disulfonamide] | 0.7813 |  | 0.0608 | 0.617 | 1.563 | 0.3906 | 0.7813 | 0.50 | 0.3906 |  | 0.208 |  |  |  |  |  |
| NCC(F)(F)c1nc2c(-c3ccc(S(=O)(=O)N[C@H]4CCNC4)c(S(N)(=O)=O)c3-c3nn[nH]n3)cccc2[nH]1 [Example 446, (S)-4-(2-(2-amino-1,1-difluoroethyl)-1H-benzo[d]imidazol-4-yl)-N1-(pyrrolidin-3-yl)-3-(2H-tetrazol-5-yl)benzene-1,2-disulfonamide] |  |  | 0.0569 | 0.446 | 3.125 | 1.563 | 3.125 |  |  | 1.563 | 0.153 | 2.00 | 3.125 |  |  |  |
| Nc1ncc(-c2ccc(S(=O)(=O)N[C@@H]3CNC[C@@H]3N)c(S(N)(=O)=O)c2-c2nn[nH]n2)s1 [Example 321, N^1-((3R,4S)-4-aminopyrrolidin-3-yl)-4-(2-aminothiazol-5-yl)-3-(2H -tetrazol-5-yl)benzene-1,2-disulfonamide] | 0.7813 | 0.958 | 0.376 | 1.25 | 3.125 | 0.7813 | 1.563 | 2.00 | 1.563 |  |  |  |  |  |  |  |
